Patent US11471446B2, “Compounds for treatment of hypoproliferative disorders” (LU LICENSE AB, priority 2015, dated 2022)
Entries after “also recorded” stand apart in the source; their conditions may differ. Counter-ions that a name gives are not always drawn.

Tests used:
[1] = tested on: RPS19-deficient murine erythroid progenitor cells; test: Phenotypic assay for rescued cell proliferation of murine RPS19-deficient erythroid progenitor cells; type: cell-based, mouse; details: for Emax / EC50: Mus musculus, Erythroid progenitor cell; for Emax: maximal proliferation rescue, read-out: ECMAX (% rescue); for EC50: proliferation rescue of RPS19-deficient erythroid progenitor cells; for rescue of proliferation (in words): RPS19-deficient murine erythroid progenitor cells
Description: Correction of reduced proliferative capacity of RPS19-deficient erythroid progenitors was used as readout in a phenotypic screen for novel drug candidates.

[2] = known from Saito et al.; cited from earlier work
CDK19 [3] = target: T1, CDK19 (Homo sapiens (Human), UniProt Q9BWU1); test: 18 selected kinases panel, DiscoveRx LeadHunter Discovery Services; type: binding; details: tested on 18 selected kinases
Description: DBA-4 was tested on 18 selected kinases by DiscoveRx LeadHunter™ Discovery Services.

DBA patient CD34+ cells [4] = test: Proliferation of erythroid DBA patient CD34+ cells in vitro; type: cell-based, human; details: 200 nM; day 14 of culture
Description: 5000 peripheral blood CD34+ cells from healthy donors or DBA patients were plated in serum free medium containing human stem cell factor and Epo to support expansion of erythroid progenitors and precursor cells. […] All three CDK8-inhibitors promote proliferation of DBA patient cells.
(§1) To confirm that CDK8/CDK19 inhibitors rescue erythropoiesis also in human DBA patient cells, CD34+ cells were isolated from healthy donors and DBA patients. CD34+ cells were cultured in conditions supporting expansion of erythroid progenitors and precursors. Three CDK8/CDK19 inhibitors and vehicle control were added to the cultures.

CDK8 = CDK8 (Homo sapiens (Human), UniProt P49336); test: KinomeScan (DiscoveRx) on 468 kinases; type: binding; details: 0.5 μM
Description: (§2) Arrows point at CDK8 and CDK19.
(§3) In particular, a compound may be considered to be a CDK8 and/or CDK19 inhibitor if it can inhibit CDK8 and/or CDK19 at a concentration as defined herein above using the KinomeScan assay.

CDK19 [5] = target: T1, CDK19; test: KinomeScan (DiscoveRx) on 468 kinases; type: binding; details: 0.5 μM
Description: as §2, §3

DBA patient CD34+ cells [6] = test: Erythroid maturation of DBA patient cells in vitro (CD71/CD235a flow cytometry); type: cell-based, human; details: 200 nM; day 8 of culture; compared to DMSO
Description: Cells were cultured in the same conditions as in FIG. 9 and analysed by flow cytometry at day 8 of culture. CD71 is a positive marker for early erythroid progenitors while CD71 and CD235a positive cells are mature erythroid precursors.
as §1

[7] = tested on: RPS19-deficient erythroid progenitor cells; test: 7-AAD FACS, cell survival of RPS19-deficient erythroid progenitors; type: cell-based, mouse
Description: (§4) In addition, the selective CDK8/CDK19 inhibitors DBA-7 and DBA-8 both rescued RPS19-deficient erythroid progenitor cells from apoptosis (FIG. 7) and loss of kit+ progenitor cell maintenance in culture (FIG. 8).

[8] = tested on: RPS19-deficient erythroid progenitor cells; test: c-kit FACS, maintenance of c-kit+ progenitor cells in culture of RPS19-deficient erythroid progenitors; type: cell-based, mouse
Description: FIG. 8: The selective CDK8/CDK19 inhibitors DBA-7 and DBA-8 rescue the loss of c-kit+ progenitor cell observed in in vitro culture of RPS19-deficient erythroid progenitors.
as §4

RPS19-deficient mice = test: Reticulocyte counts in RPS19-deficient mouse model for DBA; type: in vivo; details: oral 10 mg/kg every 12 hours, 5 doses; peripheral blood 48 hours after last treatment
Description: Treatment was stopped after 5 doses. 48 hours after last treatment peripheral blood was analysed for reticulocyte counts, which reflects the ongoing production of erythrocytes.
Treatment is stopped after 5 doses. 48 hours after last treatment peripheral blood is analysed for reticulocyte counts, which reflects the ongoing production of erythrocytes. Reticulocyte counts is rescued in RPS19-deficient mice treated with the selective CDK8/CDK19 inhibitors tested. In addition to rescue of reticulocyte and haemoglobin levels, other effects of the tested CDK8/CDK19 inhibitors are determined, in particular their ability to rescue bone marrow hypocellularity, to promote hemapopoetic stem and progenitor development, as well as cell cycle arrest and apoptosis.

T1 sequence (Q9BWU1 whole entry): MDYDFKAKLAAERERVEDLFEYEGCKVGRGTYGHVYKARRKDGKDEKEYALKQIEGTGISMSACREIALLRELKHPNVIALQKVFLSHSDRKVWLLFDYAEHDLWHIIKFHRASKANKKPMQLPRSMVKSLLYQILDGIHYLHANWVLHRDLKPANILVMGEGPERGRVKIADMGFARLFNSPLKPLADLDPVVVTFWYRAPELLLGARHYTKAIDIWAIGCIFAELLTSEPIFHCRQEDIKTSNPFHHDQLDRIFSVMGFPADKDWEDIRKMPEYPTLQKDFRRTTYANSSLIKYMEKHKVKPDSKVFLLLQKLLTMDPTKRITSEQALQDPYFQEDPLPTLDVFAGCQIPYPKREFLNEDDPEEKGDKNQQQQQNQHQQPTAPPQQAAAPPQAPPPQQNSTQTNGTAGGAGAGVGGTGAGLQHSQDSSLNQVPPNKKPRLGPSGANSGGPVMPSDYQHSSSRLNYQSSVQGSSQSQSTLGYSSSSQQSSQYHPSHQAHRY
Sequence of CDK8 (P49336 whole entry): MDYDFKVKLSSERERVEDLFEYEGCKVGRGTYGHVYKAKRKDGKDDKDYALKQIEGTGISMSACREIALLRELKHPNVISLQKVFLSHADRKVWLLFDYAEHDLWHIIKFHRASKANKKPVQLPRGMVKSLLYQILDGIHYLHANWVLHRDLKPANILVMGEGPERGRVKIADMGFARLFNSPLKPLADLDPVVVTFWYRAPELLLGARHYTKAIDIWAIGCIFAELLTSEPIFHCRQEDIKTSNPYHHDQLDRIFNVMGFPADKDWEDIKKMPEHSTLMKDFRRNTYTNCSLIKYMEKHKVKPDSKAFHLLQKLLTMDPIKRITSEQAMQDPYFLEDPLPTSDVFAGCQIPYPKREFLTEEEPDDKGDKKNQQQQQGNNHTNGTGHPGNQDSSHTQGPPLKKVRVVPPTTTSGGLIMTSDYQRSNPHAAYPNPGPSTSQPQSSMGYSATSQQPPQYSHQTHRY

CN(C)c1ccnc2sc(C(N)=O)c(N)c12 [DBA-1]
Emax [1]: 25% | EC50 [1]: 1.2 µM | rescue of proliferation (in words) [1]: partial dose-dependent rescue of proliferation; also recorded: potent | bone anabolic effect [2]: effect as bone anabolic agents

COc1ccc(-c2cc(C3CC3)nc3sc(C(N)=O)c(N)c23)cc1 [DBA-2]
Emax [1]: 45% | EC50 [1]: 15 µM | rescue of proliferation (in words) [1]: potent

CCc1nc2sc(C(N)=O)c(N)c2c2c1CCCC2 [DBA-3]
Emax [1]: 38% | EC50 [1]: 11 µM | rescue of proliferation (in words) [1]: potent

COCc1cc(C)nc2sc(C(N)=O)c(N)c12 [DBA-4]
inhibition of CDK19 (CDK19 [3]): inhibited | Emax [1]: 28% | EC50 [1]: 2.8 µM | rescue of proliferation (in words) [1]: potent

Cc1c(C(N)=O)sc2nc(C(F)(F)F)cc(N)c12 [DBA-5]
Emax [1]: 21% | EC50 [1]: 1.7 µM | rescue of proliferation (in words) [1]: potent

NC(=O)c1sc2nccc(N3CCCN(c4ccccc4)CC3)c2c1N [DBA-6]
Emax [1]: 30% | rescue of proliferation (in words) [1]: partial dose-dependent rescue of proliferation; also recorded: potent | bone anabolic effect [2]: effect as bone anabolic agents

CN(C)C(=O)Cc1ccc(N2CCCN(c3ccnc4sc(C(N)=O)c(N)c34)CC2)cc1 [DBA-7]
proliferation of DBA patient cells (cell counts) (DBA patient CD34+ cells [4]): rescue proliferation | inhibition of CDK8 (CDK8): very selectively inhibited | inhibition of CDK19 (CDK19 [5]): very selectively inhibited | erythroid maturation of DBA patient cells (CD71, CD235a) (DBA patient CD34+ cells [6]): increase erythroid maturation | rescue from apoptosis (7-AAD) [7]: rescued | rescue of loss of kit+ progenitor cell maintenance in culture [8]: rescued | Emax [1]: 82% | EC50 [1]: 0.025 µM | rescue of proliferation (in words) [1]: potent; also recorded: partial dose-dependent rescue of proliferation | bone anabolic effect [2]: effect as bone anabolic agents

N#Cc1ccc2ncnc(NCCc3ccccc3)c2c1 [DBA-8, reference compound]
rescue from apoptosis (7-AAD) [7]: rescued | rescue of loss of kit+ progenitor cell maintenance in culture [8]: rescued | Emax [1]: 80% | EC50 [1]: 0.5 µM | rescue of proliferation (in words) [1]: partial dose-dependent rescue of proliferation

CN1CCN(C(=O)c2ccc3cc(CCNc4ncnc5ccc(C#N)cc45)ccc3c2)CC1 [DBA-9]
proliferation of DBA patient cells (cell counts) (DBA patient CD34+ cells [4]): rescue proliferation | erythroid maturation of DBA patient cells (CD71, CD235a) (DBA patient CD34+ cells [6]): increase erythroid maturation | Emax [1]: 60% | reticulocyte counts (RPS19-deficient mice): rescued

Cc1c(Br)c(Br)c2c3c1nc(N1CCNCC1)n3CCC2 [DBA-10, 7,8-dibromo-9-methyl-2-(piperazin-1-yl)-5,6-dihydro-4H-imidazo[4,5,1-ij]quinoline hydrochloride, reference compound]
proliferation of DBA patient cells (cell counts) (DBA patient CD34+ cells [4]): rescue proliferation | erythroid maturation of DBA patient cells (CD71, CD235a) (DBA patient CD34+ cells [6]): increase erythroid maturation | Emax [1]: 60% | EC50 [1]: 0.02 µM

Cn1cc(-c2ccc(-c3cncc(Cl)c3N3CCC4(CCNC4=O)CC3)cc2)cn1 [DBA-11, 8-[3-chloro-5-[4-(1-methyl-1H-pyrazol-4-yl)phenyl]-4-pyridinyl]-2,8-diazaspiro[4.5]decan-1-one, reference compound]
Emax [1]: 50% | EC50 [1]: 0.02 µM
